Structures can show the parent of a compound that is named as a salt.
Columns and labels:
[1] = biological target: T1, recombinant human LTA4 hydrolase (rhLTA4H) (Homo sapiens, UniProt P09960); assay: Recombinant human LTA4 hydrolase assay for LTA4 hydrolase inhibitor activity; format: biochemical; conditions: rhLTA4H, LTB4 by immunoassay; single determination or average of two or more; mark after value = form tested: ′ free base, ″ hydrochloride, ^ formate; read-out: IC50
T1 construct: made in house; host or cells: Spodoptera frugiperda (Sf-9) cells, baculovirus (pFastBac1)
T1 sequence (P09960 1-611): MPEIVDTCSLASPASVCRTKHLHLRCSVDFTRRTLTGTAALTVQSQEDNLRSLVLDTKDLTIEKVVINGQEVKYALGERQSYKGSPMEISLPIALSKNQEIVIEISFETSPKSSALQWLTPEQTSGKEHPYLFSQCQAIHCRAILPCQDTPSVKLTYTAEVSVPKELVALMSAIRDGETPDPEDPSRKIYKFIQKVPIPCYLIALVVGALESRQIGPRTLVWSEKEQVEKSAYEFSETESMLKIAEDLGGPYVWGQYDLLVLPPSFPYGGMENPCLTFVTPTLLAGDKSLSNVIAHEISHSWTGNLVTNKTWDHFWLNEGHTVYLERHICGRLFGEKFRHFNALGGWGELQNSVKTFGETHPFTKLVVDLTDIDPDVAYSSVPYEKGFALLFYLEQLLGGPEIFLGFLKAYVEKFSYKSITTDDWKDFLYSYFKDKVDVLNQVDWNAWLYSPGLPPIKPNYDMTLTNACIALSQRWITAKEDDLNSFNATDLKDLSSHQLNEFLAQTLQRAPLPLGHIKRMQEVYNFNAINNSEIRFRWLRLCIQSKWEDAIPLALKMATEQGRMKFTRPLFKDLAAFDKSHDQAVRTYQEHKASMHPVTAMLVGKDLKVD
Summary of the method: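 LTB4 formation, measured by enzyme immunoassay, was the read-out. The enzyme, recombinant human LTA4H expressed in Sf-9 insect cells (10 ng per reaction), was exposed to compound for 10 min at room temperature before hydrolysed-ester LTA4 substrate was added for 30 min. Enzyme-free negatives were included.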

[2] = tested on: LTB4 production in murine blood (LTA4H); assay: LTB4 production by calcium ionophore-stimulated murine blood for LTA4H inhibitor activity; format: cell-based, CD-1 mice; conditions: Mus musculus; murine blood diluted 1 in 15, A23187 stimulated; single determination or average; mark after value = form tested: ′ free base, ″ hydrochloride, ^ formate; read-out: IC50
Summary of the method: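 LTB4 was measured by ELISA in supernatants after calcium ionophore A23187 stimulation (final 7 μg/mL, 30 min, 37° C) of CD-1 mouse blood collected on heparin. Compound was preincubated with the blood for 15 min beforehand. Values come from one determination or average several.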

IC50 [1] | IC50 [2] | SMILES
29 nM | 350 nM | Fc1ccc2sc3c(c2c1)CN(Cc1c[nH]c2cc(Oc4nc5ncccc5s4)ccc12)CC3 [Example 38, 8-Fluoro-2-[6-(thiazolo[4,5-b]pyridin-2-yloxy)-1H-indol-3-ylmethyl]-1,2,3,4-tetrahydro-benzo[4,5]thieno[3,2-c]pyridine]
21 nM | 8510 nM | CCOC(=O)C1CCN(Cc2c[nH]c3cc(Oc4nc5cccnc5s4)ccc23)CC1 [Example 140, 1-[6-(Thiazolo[5,4-b]pyridin-2-yloxy)-1H-indol-3-ylmethyl]-piperidine-4-carboxylic acid ethyl ester]
15 nM | 234 nM | CCOC(=O)NC1CCN(Cc2c[nH]c3cc(Oc4nc5ccccc5s4)ccc23)CC1 [Example 29, {1-[6-(Benzothiazol-2-yloxy)-1H-indol-3-ylmethyl]-piperidin-4-yl}-carbamic acid ethyl ester]
24 nM | 160 nM | c1cnc2nc(Oc3ccc4c(CN5CCC(N6CCCCC6)CC5)coc4c3)sc2c1 [Example 284, 1′-[6-(Thiazolo[4,5-b]pyridin-2-yloxy)-benzofuran-3-ylmethyl]-[1,4′]bipiperidinyl formate]
6 nM | 30 nM | CC(=O)N(C1CC1)C1CCN(Cc2coc3cc(Oc4nc5ncccc5s4)ccc23)CC1 [Example 322, N-Cyclopropyl-N-{1-[6-(thiazolo[4,5-b]pyridin-2-yloxy)-benzofuran-3-ylmethyl]-piperidin-4-yl}-acetamide]
2 nM | 100 nM | O=C(C1CCN(Cc2c[nH]c3cc(Oc4nc5ccccc5s4)ccc23)CC1)N1CCOCC1 [Example 25, {1-[6-(Benzothiazol-2-yloxy)-1H-indol-3-ylmethyl]-piperidin-4-yl}-morpholin-4-yl-methanone]
2 nM | 100 nM | c1cnc2nc(Oc3ccc4c(CN5CCC6CCCCC6C5)coc4c3)sc2c1 (stereo not shown) [Example 266, 2-[6-(Thiazolo[4,5-b]pyridin-2-yloxy)-benzofuran-3-ylmethyl]-decahydro-isoquinoline formate]
16 nM | 303 nM | c1ccc2sc(Oc3ccc4c(CN5CCOCC5)c[nH]c4c3)nc2c1 [Example 3, 2-(3-Morpholin-4-ylmethyl-1H-indol-6-yloxy)-benzothiazole]
59 nM | 280 nM | CC(=O)N1CCN(Cc2cc3ccc(Oc4nc5ncccc5s4)cc3o2)CC1 [Example 171, 1-{4-[6-(Thiazolo[4,5-b]pyridin-2-yloxy)-benzofuran-2-ylmethyl]-piperazin-1-yl}-ethanone]
19 nM | 136 nM | NC(=O)[C@H]1CCCN(Cc2c[nH]c3cc(Oc4nc5ccccc5s4)ccc23)C1 [Example 27, (3S)-1-[6-(Benzothiazol-2-yloxy)-1H-indol-3-ylmethyl]-piperidine-3-carboxylic acid amide]
27 nM | 220 nM | CC(=O)NC1CCN(Cc2coc3cc(Oc4nc5ncc(C)cc5s4)ccc23)CC1 [Example 251, N-{1-[6-(6-Methyl-thiazolo[4,5-b]pyridin-2-yloxy)-benzofuran-3-ylmethyl]-piperidin-4-yl}-acetamide formate]
12 nM | 17 nM | c1cnc2nc(Oc3ccc4c(CNC5CCCC5)coc4c3)sc2c1 [Example 298, Cyclopentyl-[6-(thiazolo[4,5-b]pyridin-2-yloxy)-benzofuran-3-ylmethyl]-amine]
45 nM | 180 nM | c1ccc2sc(Oc3ccc4c(CN5CC6CNCC6C5)c[nH]c4c3)nc2c1 (stereo not shown) [Example 51, 2-[3-(Hexahydro-pyrrolo[3,4-c]pyrrol-2-ylmethyl)-1H-indol-6-yloxy]-benzothiazole 2HCl]
3 nM | 129 nM | CC(=O)N1C[C@@H]2C[C@H]1CN2Cc1c[nH]c2cc(Oc3nc4ccccc4s3)ccc12 [Example 55, (1S,4S)-1-{5-[6-(Benzothiazol-2-yloxy)-1H-indol-3-ylmethyl]-2,5-diaza-bicyclo[2.2.1]hept-2-yl}-ethanone]
5 nM | 74 nM | CC(=O)N1CCN(Cc2cc3cc(Oc4nc5ncccc5s4)ccc3o2)CC1 [Example 259, 1-{4-[5-(Thiazolo[4,5-b]pyridin-2-yloxy)-benzofuran-2-ylmethyl]-piperazin-1-yl}ethanone formate]
9 nM | 14 nM | O=C(c1ccno1)N1C[C@@H]2C[C@H]1CN2Cc1coc2cc(Oc3nc4ncccc4s3)ccc12 [Example 358, (1S,4S)-Isoxazol-5-yl-{5-[6-(thiazolo[4,5-b]pyridin-2-yloxy)-benzofuran-3-ylmethyl]-2,5-diaza-bicyclo[2.2.1]hept-2-yl}-methanone]
32 nM | 400 nM | O=C1Cc2ccc(Cl)cc2N1Cc1coc2cc(Oc3nc4ncccc4s3)ccc12 [Example 402, 6-Chloro-1-[6-(thiazolo[4,5-b]pyridin-2-yloxy)-benzofuran-3-ylmethyl]-1,3-dihydro-indol-2-one]
88 nM | 97 nM | NC(=O)N1CC2CN(Cc3cc4cc(Oc5nc6ncccc6s5)ccc4o3)CC2C1 (stereo not shown) [Example 91, 5-[5-(Thiazolo[4,5-b]pyridin-2-yloxy)-benzofuran-2-ylmethyl]-hexahydro-pyrrolo[3,4-c]pyrrole-2-carboxylic acid amide]
2 nM | 79 nM | CNC(=O)C1CCN(Cc2c[nH]c3cc(Oc4nc5ccccc5s4)ccc23)CC1 [Example 22, 1-[6-(Benzothiazol-2-yloxy)-1H-indol-3-ylmethyl]-piperidine-4-carboxylic acid methylamide]
6 nM | 222 nM | O=C1C[C@@H](O)CN1C1CCN(Cc2c[nH]c3cc(Oc4nc5ccccc5s4)ccc23)CC1 [Example 44, (4R)-1-{1-[6-(Benzothiazol-2-yloxy)-1H-indol-3-ylmethyl]-piperidin-4-yl}-4-hydroxy-pyrrolidin-2-one]
19 nM | 78 nM | c1ccc2sc(Oc3ccc4c(CN5CCCCC5)c[nH]c4c3)nc2c1 [Example 2, 2-(3-Piperidin-1-ylmethyl-1H-indol-6-yloxy)-benzothiazole]
26 nM | 170 nM | CC(=O)NC1CCN(C(=O)c2coc3cc(Oc4nc5ncccc5s4)ccc23)CC1 [Example 368, N-{1-[6-(Thiazolo[4,5-b]pyridin-2-yloxy)-benzofuran-3-carbonyl]-piperidin-4-yl}-acetamide]
20 nM | 410 nM | O=C(c1coc2cc(Oc3nc4ncccc4s3)ccc12)N1CCC(c2ccccc2)CC1 [Example 377, (4-Phenyl-piperidin-1-yl)-[6-(thiazolo[4,5-b]pyridin-2-yloxy)-benzofuran-3-yl]-methanone]
93 nM | 2430 nM | CCn1c(CN2CCCC2)cc2cc(Oc3nc4ccccc4s3)ccc21 [Example 64, 2-(1-Ethyl-2-pyrrolidin-1-ylmethyl-1H-indol-5-yloxy)-benzothiazole]
12 nM | 467 nM | CCOC(=O)C1CCN(Cc2c[nH]c3cc(Oc4nc5ccccc5s4)ccc23)CC1 [Example 139, 1-[6-(Benzothiazol-2-yloxy)-1H-indol-3-ylmethyl]-piperidine-4-carboxylic acid ethyl ester]
4 nM | 165 nM | CC(=O)N1CC2CN(Cc3c[nH]c4cc(Oc5nc6ccccc6s5)ccc34)CC2C1 (stereo not shown) [Example 54, 1-{5-[6-(Benzothiazol-2-yloxy)-1H-indol-3-ylmethyl]-hexahydro-pyrrolo[3,4-c]pyrrol-2-yl}-ethanone]

SMILES | IC50 [1] | IC50 [2]
CC(=O)N[C@H]1C[C@H]2CC[C@@H](C1)N2Cc1coc2cc(Oc3nc4ccccc4s3)ccc12 [Example 181, meso-endo-N-{8-[6-(Benzothiazol-2-yloxy)-benzofuran-3-ylmethyl]-8-aza-bicyclo[3.2.1]oct-3-yl}-acetamide] | 3 nM | 33 nM
NC(=O)N1C[C@H]2CC[C@@H](C1)N2Cc1cc2cc(Oc3nc4ncccc4s3)ccc2o1 [Example 94, meso-8-[5-(Thiazolo[4,5-b]pyridin-2-yloxy)-benzofuran-2-ylmethyl]-3,8-diaza-bicyclo[3.2.1]octane-3-carboxylic acid amide] | 102 nM | 202 nM
CC(=O)N[C@H]1C[C@H]2CC[C@@H](C1)N2CCc1coc2cc(Oc3nc4ccccc4s3)ccc12 [Example 129, meso-endo-N-(8-{2-[6-(Benzothiazol-2-yloxy)-benzofuran-3-yl]-ethyl}-8-aza-bicyclo[3.2.1]oct-3-yl)-acetamide] | 13 nM | 180 nM

Source: US8399465B2, “Compounds with two fused bicyclic heteroaryl moieties as modulators of leukotriene A4 hydrolase” (Janssen Pharmaceutica NV, priority 2009, dated 2013)
